Patent US9783552B2, “Soluble guanylate cyclase activators” (MERCK SHARP & DOHME CORP., priority 2013, dated 2017)

Target: T1, sGC α1/β1 heterodimer (Homo sapiens, UniProt Q02108+Q02153)
T1 construct: expressed in transfected cells
T1 sequence (Q02108 1-690): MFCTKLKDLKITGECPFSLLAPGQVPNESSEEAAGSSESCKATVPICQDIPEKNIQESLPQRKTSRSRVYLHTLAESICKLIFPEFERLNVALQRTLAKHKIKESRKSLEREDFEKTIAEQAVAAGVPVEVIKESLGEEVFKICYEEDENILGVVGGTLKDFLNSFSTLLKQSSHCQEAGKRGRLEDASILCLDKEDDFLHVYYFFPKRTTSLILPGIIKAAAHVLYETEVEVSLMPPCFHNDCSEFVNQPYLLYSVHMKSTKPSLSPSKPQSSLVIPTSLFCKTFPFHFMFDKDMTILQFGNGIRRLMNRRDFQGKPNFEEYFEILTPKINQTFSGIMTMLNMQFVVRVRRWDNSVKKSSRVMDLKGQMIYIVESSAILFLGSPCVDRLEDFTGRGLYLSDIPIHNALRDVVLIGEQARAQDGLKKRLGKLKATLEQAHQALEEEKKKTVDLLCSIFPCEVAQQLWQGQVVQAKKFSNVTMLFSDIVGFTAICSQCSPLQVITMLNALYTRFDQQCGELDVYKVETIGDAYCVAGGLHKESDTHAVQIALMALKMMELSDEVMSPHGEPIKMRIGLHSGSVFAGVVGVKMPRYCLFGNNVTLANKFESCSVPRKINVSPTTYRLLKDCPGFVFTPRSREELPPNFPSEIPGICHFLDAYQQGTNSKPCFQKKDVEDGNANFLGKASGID
T1 sequence (Q02153 1-619): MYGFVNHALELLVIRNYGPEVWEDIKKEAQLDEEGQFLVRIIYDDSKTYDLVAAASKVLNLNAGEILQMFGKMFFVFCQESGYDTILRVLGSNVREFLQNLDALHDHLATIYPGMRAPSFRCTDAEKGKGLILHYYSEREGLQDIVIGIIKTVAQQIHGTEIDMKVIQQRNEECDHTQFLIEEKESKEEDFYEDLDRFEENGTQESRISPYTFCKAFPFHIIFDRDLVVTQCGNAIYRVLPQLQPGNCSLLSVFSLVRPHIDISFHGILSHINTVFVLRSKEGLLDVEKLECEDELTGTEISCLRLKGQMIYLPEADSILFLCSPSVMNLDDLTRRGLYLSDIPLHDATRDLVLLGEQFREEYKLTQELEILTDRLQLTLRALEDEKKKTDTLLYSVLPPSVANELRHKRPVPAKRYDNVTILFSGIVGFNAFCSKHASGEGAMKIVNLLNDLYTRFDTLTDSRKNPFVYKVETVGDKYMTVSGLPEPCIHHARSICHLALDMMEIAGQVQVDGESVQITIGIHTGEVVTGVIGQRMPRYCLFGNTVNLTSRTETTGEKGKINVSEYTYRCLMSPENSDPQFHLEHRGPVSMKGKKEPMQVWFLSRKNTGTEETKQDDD
Experiment: Cell-Based sGC Functional Assay (CASA Assay)
Settings: CHO-K1/sGC cells; for EC50: intracellular cGMP by HTRF, 1 hr at 37° C., IP from 4P fit, presence or absence of 1 μM DETA-NO not given; for Emax: cGMP as percentage of maximum cGMP production of Compound A (=100% activation), read-out: % ACT (percent activation)
Source text: Biological Assays: Cell-Based sGC Functional Assay (CASA Assay)
sGC is a heme-containing enzyme that converts GTP to secondary messenger cGMP. Increases in cGMP levels affect several physiological processes including vasorelaxation through multiple downstream pathways. […] Heme-dependent activators (HDAs) preferentially activate sGC containing a ferrous heme group. To determine the effect of sGC activators on enzyme activity, the CASA assay was developed to monitor the generation of cGMP in a cell line that stably expresses the heterodimeric sGC protein.
A CHO-K1 cell line stably expressing the sGC α1/β1 heterodimer was generated using a standard transfection protocol. CHO-K1 cells were transfected with plasmids pIREShyghsGCα1 and pIRESneo-hsGCβ1 simultaneously using FUGENE reagent. Clones that stably express both subunits were selected with hygromycin and neomycin for ˜2 weeks. Clone #7 was chosen for the assay and was designated CHO-K1/sGC. CHO-K1/sGC cells were maintained in F-K12 medium containing 10% heat-inactivated Fetal Bovine Serum (FBS), 100 μg/mL penicillin/streptomycin, 0.5 mg/mL hygromycin and 0.25 mg/mL G418. The cells were then cryopreserved in LN2. On the day of the assay, cells were thawed and resuspended in EBSS Assay Buffer (EAB, Sigma, E3024) supplemented with 5 mM MgCl2, 10 mM HEPES (4-(2-hydroxyethyl)piperazine-1-ethanesulfonic acid) and 0.05% BSA (bovine serum albumin) and cell density was then adjusted to 4×10^5/mL with EAB. IBMX (3-isobutyl-1-methylxanthin, 0.5 mM) was added to inhibit degradation of cGMP. Compounds were diluted from DMSO stock solutions and added to the assay at a final DMSO concentration of 2.5%. Cells were incubated with compounds in the presence and absence of 1 μM of Diethylenetriamine/nitric oxide adduct (DETA-NO; Sigma, 17018) for 1 hr at 37° C. At the end of the incubation period, the reaction was terminated and the cells were lysed with the detection reagents from Cisbio Kits. The level of intracellular cGMP was determined using an HTRF-based assay kit (CisBio, 62GM2PEC), which detects the displacement of a fluorescence labeled cGMP from its specific antibody. The cGMP produced by test compounds was directly compared to the maximum cGMP production (this value was set to equal 100% activation) of the published sGC-HDA Compound A:
[drawing 123] (Example 1 in WO 2010/065275, published Jun. 10, 2010). The test compounds' activity was then expressed as a percentage of Compound A, the standard in every experiment. This percent activation was calculated either in the presence or absence of DETA-NO which was then plotted. IP and maximum fold induction was derived using ADA analysis software for 4P fit.

Row | EC50 [nM] | Emax [%] | Structure (SMILES)
1 | 341 | 109 | CC1(c2ccc(F)cc2)C(=O)Nc2nc(-c3nc(CCC(F)(F)C(F)(F)F)nc4[nH]ncc34)nc(N)c21 (single isomer, unassigned) [Example 8, 4-Amino-5-(4-fluorophenyl)-5-methyl-2-(6-(3,3,4,4,4-pentafluorobutyl)-1H-pyrazolo[3,4-d]pyrimidin-4-yl)-5H-pyrrolo[2,3-d]pyrimidin-6(7H)-one]
2 | 245 | 84 | Cn1ncc2c(-c3nc(N)c4c(n3)NC(=O)C4(C)C(N)=O)nc(CCC(F)(F)C(F)(F)F)nc21 (single isomer, unassigned) [Example 30, 4-Amino-5-methyl-2-(1-methyl-6-(3,3,4,4,4-pentafluorobutyl)-1H-pyrazolo[3,4-d]pyrimidin-4-yl)-6-oxo-6,7-dihydro-5H-pyrrolo[2,3-d]pyrimidine-5-carboxamide]
3 | 52 | 113 | COc1ccc(C2(C)C(=O)Nc3nc(-c4nc(CCCC(F)(F)F)nc5c4cnn5C)nc(N)c32)cc1F (single isomer, unassigned) [Example 15, 4-Amino-5-(3-fluoro-4-methoxyphenyl)-5-methyl-2-(1-methyl-6-(4,4,4-trifluorobutyl)-1H-pyrazolo[3,4-d]pyrimidin-4-yl)-5H-pyrrolo[2,3-d]pyrimidin-6(7H)-one]
4 | 40 | 101 | [2H]C([2H])([2H])n1ncc2c(-c3nc(N)c4c(n3)NC(=O)C4(C)c3ccccc3)nc(CCC(F)(F)C(F)(F)F)nc21 (single isomer, unassigned) [Example 13, 4-Amino-5-methyl-2-(6-(3,3,4,4,4-pentafluorobutyl)-1-trideuteriomethyl-1H-pyrazolo[3,4-d]pyrimidin-4-yl)-5-phenyl-5H-pyrrolo[2,3-d]pyrimidin-6(7H)-one]
5 | 53 | 122 | Cn1ncc2c(-c3nc(N)c4c(n3)NC(=O)C4(C)c3ccc(F)cc3)nc(CC3CC(F)(F)C3)nc21 (single isomer, unassigned) [Example 5, 4-Amino-2-(6-((3,3-difluorocyclobutyl)methyl)-1-methyl-1H-pyrazolo[3,4-d]pyrimidin-4-yl)-5-(4-fluorophenyl)-5-methyl-5H-pyrrolo[2,3-d]pyrimidin-6(7H)-one]
6 | 53 | 112 | Cn1ncc2c(-c3nc(N)c4c(n3)NC(=O)C4(C(=O)NC3CC3)C3CC3)nc(CCC(F)(F)C(F)(F)F)nc21 (single isomer, unassigned) [Example 33, 4-Amino-N,5-dicyclopropyl-2-(1-methyl-6-(3,3,4,4,4-pentafluorobutyl)-1H-pyrazolo[3,4-d]pyrimidin-4-yl)-6-oxo-6,7-dihydro-5H-pyrrolo[2,3-d]pyrimidine-5-carboxamide]
7 | 255 | 102 | CC1(c2ccccc2)C(=O)Nc2nc(-c3nc(CCC(F)(F)C(F)(F)F)nc4[nH]ccc34)nc(N)c21 (single isomer, unassigned) [Example 65, 4-Amino-5-methyl-2′-(3,3,4,4,4-pentafluorobutyl)-5-phenyl-5H,7′H-[2,4′-bipyrrolo[2,3-d]pyrimidin]-6(7H)-one]
8 | 197 | 116 | Cn1ncc2c(-c3nc(N)c4c(n3)NC(=O)C4(C)c3ccc(Br)cc3)nc(CCC(F)(F)C(F)(F)F)nc21 (single isomer, unassigned) [Example 10, 4-Amino-5-(4-bromophenyl)-5-methyl-2-(1-methyl-6-(3,3,4,4,4-pentafluorobutyl)-1H-pyrazolo[3,4-d]pyrimidin-4-yl)-5H-pyrrolo[2,3-d]pyrimidin-6(7H)-one]
9 | 602 | 98 | CCOC(=O)C1(C2CC2)C(=O)Nc2nc(-c3nc(CCCC(F)(F)F)nc4c3cnn4C)nc(N)c21 (single isomer, unassigned) [Example 27, Ethyl 4-amino-5-cyclopropyl-2-(1-methyl-6-(4,4,4-trifluorobutyl)-1H-pyrazolo[3,4-d]pyrimidin-4-yl)-6-oxo-6,7-dihydro-5H-pyrrolo[2,3-d]pyrimidine-5-carboxylate]
10 | 209 | 110 | [2H]C([2H])([2H])n1ncc2c(-c3nc(N)c4c(n3)NC(=O)C4(C)c3ccc(O)cc3)nc(CCC(F)(F)C(F)(F)F)nc21 (single isomer, unassigned) [Example 43, 4-Amino-5-(4-hydroxyphenyl)-5-methyl-2-(6-(3,3,4,4,4-pentafluorobutyl)-1-trideuteriomethyl-1H-pyrazolo[3,4-d]pyrimidin-4-yl)-5H-pyrrolo[2,3-d]pyrimidin-6(7H)-one]
11 | 830 | 93 | CCOC(=O)C1(C2CC2)C(=O)Nc2nc(-c3nc(CCC(F)(F)C(F)(F)F)nc4c3cnn4C)nc(N)c21 (single isomer, unassigned) [Example 26, Ethyl 4-amino-5-cyclopropyl-2-(1-methyl-6-(3,3,4,4,4-pentafluorobutyl)-1H-pyrazolo[3,4-d]pyrimidin-4-yl)-6-oxo-6,7-dihydro-5H-pyrrolo[2,3-d]pyrimidine-5-carboxylate]
12 | 119 | 118 | CC(C)NC1(C)C(=O)Nc2nc(-c3nc(CCC(F)(F)C(F)(F)F)nc4c3cnn4C)nc(N)c21 (stereo not shown) [Example 55, 4-Amino-5-(isopropylamino)-5-methyl-2-(1-methyl-6-(3,3,4,4,4-pentafluorobutyl)-1H-pyrazolo[3,4-d]pyrimidin-4-yl)-5H-pyrrolo[2,3-d]pyrimidin-6(7H)-one]
13 | 746 | 109 | Cn1ncc2c(-c3nc(N)c4c(n3)NC(=O)C4(C)NC(=O)c3ccccn3)nc(CCC(F)(F)C(F)(F)F)nc21 (stereo not shown) [Example 51, N-(4-Amino-5-methyl-2-(1-methyl-6-(3,3,4,4,4-pentafluorobutyl)-1H-pyrazolo[3,4-d]pyrimidin-4-yl)-6-oxo-6,7-dihydro-5H-pyrrolo[2,3-d]pyrimidin-5-yl)picolinamide]
14 | 716 | 138 | [2H]C([2H])([2H])n1ncc2c(-c3nc(N)c4c(n3)NC(=O)C4(C)c3ccc(-c4nnco4)cc3)nc(CCC(F)(F)C(F)(F)F)nc21 (single isomer, unassigned) [Example 45, 5-(4-(1,3,4-Oxadiazol-2-yl)phenyl)-4-amino-5-methyl-2-(1-methyl-6-(3,3,4,4,4-pentafluorobutyl)-1H-pyrazolo[3,4-d]pyrimidin-4-yl)-5H-pyrrolo[2,3-d]pyrimidin-6(7H)-one]
